Assay results published in patent publication US4505916A, “Method for the treatment of psychoneurotic states by administration of derivatives of 2-(4-piperidyl)-1-(4-quinolyl)-ethanone” (Pharmindustrie, priority 1979, dated 1985).

Legend:
[1] = target: cerebral receiving sites of the benzodiazepines; test: Displacement of tritiated Diazepam from its binding site (method of MOHLER et al.); design: species or system rat; settings: displacement of tritiated Diazepam (3H Diazepam) from its binding site
Protocol: The medicaments of the class of benzodiazepines are used as anticonvulsivants, as hypnotics and for the treatment of states of anxiety and of various psychoneurotic states for treatment of warm blooded mammals. The presence of specific receptors of the benzodiazepines in the membranes of the rat's brain has been shown [SQUIRES et al., Nature, 266, (1977), 732] and the degree of affinity of the benzodiazepines for these receptors, which is measured by their aptitude for displacing the tritiated Diazepam from its binding sites, is in good correlation with the pharmacodynamic effects observed on the animal and on man.
I--AFFINITY FOR THE CEREBRAL RECEIVING SITES OF THE BENZODIAZEPINES
The products have been tested according to the method of MOHLER et al, Life Science, 1977, 20, 2101, which is relied on herein.

[2] = test system: ventricular arhythmia caused by aconitine; test: Aconitine test on the rat (antiarhythmic activity); assay type: in vivo; settings: iv
Protocol: The antiarhythmic activity of the compounds of the present invention has been shown with the help of the aconitine test on the rat.
The principle of the technique rests on the induction time of the ventricular arhythmia caused by aconitine which slowly perfused in rats. An antiarhythmic substance retards the appearance of the arhythmia and the delay is proportional to the activity of the molecule.
Groups of 5 male rats are used. An individual anaesthesia is carried out (10% urethane: 1 g/kg/ip) to permit a catheterisation of the vein of the penis. The electrocardiogram is recorded. At the time T=0 the substance studied is injected in the form of an aqueous solution, at the rate of 2.5 ml of solution per kg in 30 seconds. At the time T=90 seconds, that is 1 minute after the end of the injection, the aconitine is perfused at the rate of 20 μg per minute until the appearance of supraventricular extra systoles. The time of perfusion of the aconitine is noted.
The results are expressed by an ED50 which is the dose in mg/kg increasing by 50% the time of perfusion of the aconitine in comparison with the perfusion time of aconitine for the control animals.

[3] = target: cerebral receiving sites of the benzodiazepines; settings: 3H Diazepam; constant used in the formula for Ki; read-out: KD, constant of affinity; cited from earlier work

Cc1ccc(-c2cc(CCC3CCNCC3)c3ccccc3n2)cc1 [Example 19, 2-(4-METHYL-PHENYL)-4-[2-(4-PIPERIDYL)-ETHYL]-QUINOLINE]
Ki [1]: 0.6 µM

O=C(CC1CCNCC1)c1cc(-c2ccc(F)cc2)nc2ccccc12 [Example 6, 1-[2-(4-fluoro-phenyl)-4-quinolyl]-2-(4-piperidyl)-ethanone]
Ki [1]: 8 µM

CN1CCC(CCc2cc(-c3ccccc3)nc3ccccc23)CC1 [Example 23, 4-[2-(1-METHYL-4-PIPERIDYL)-ETHYL]-2-PHENYL-QUINOLINE]
Ki [1]: 0.1 µM

COc1ccc(-c2cc(CCC3CCNCC3)c3ccccc3n2)cc1 [Example 18, 2-(4-METHOXY-PHENYL)-4-[2-(4-PIPERIDYL)-ETHYL]-QUINOLINE]
Ki [1]: 1.3 µM

Clc1ccc(-c2cc(CCC3CCNCC3)c3ccccc3n2)cc1 [Example 17, 2-(4-chloro-phenyl)-4-[2-(4-piperidyl)-ethyl]-quinoline]
Ki [1]: 0.4 µM

Cc1ccc(-c2cc(C(=O)CC3CCNCC3)c3ccccc3n2)cc1 [Example 8, 1-[2-(4-METHYL-PHENYL)-4-QUINOLYL]-2-(4-PIPERIDYL)-ETHANONE]
Ki [1]: 1.6 µM

c1ccc(-c2cc(CCC3CCNCC3)c3ccccc3n2)cc1 [Example 16, 2-phenyl-4-[2-(4-piperidyl)-ethyl]-quinoline]
Ki [1]: 0.2 µM | ED50 [2]: 1.3 mg/kg

O=C(CC1CCNCC1)c1cc(-c2ccc(Cl)cc2)nc2ccccc12 [Example 7, 1-[2-(4-CHLORO-PHENYL)-4-QUINOLYL]-2-(4-PIPERIDYL)-ETHANONE]
Ki [1]: 4.5 µM

C=C[C@H]1CNCC[C@H]1CC(=O)c1cc(-c2ccccc2)nc2ccccc12 [Example 11, 2-[3(R)-ethenyl-4(S)-piperidyl]-1-(2-phenyl-4-quinolyl)ethanone]
Ki [1]: 2 µM

CN1C(=O)CN=C(c2ccccc2)c2cc(Cl)ccc21 [^3 H Diazepam]
Kd [3]: 0.00274 µM

C=C[C@@H]1CNCC[C@H]1CCc1ccnc2ccc(OC)cc12 [Example 26, 6-methoxy-4-{2-[3(S)-ethenyl-4(R)-piperidyl]-ethyl}-quinoline]
ED50 [2]: 2.6 mg/kg

c1ccc(CCN2CCC(CCc3cc(-c4ccccc4)nc4ccccc34)CC2)cc1 [Example 22, 4-{2-[1-(2-phenyl-ethyl)-4-piperidyl]-ethyl}-2-phenyl-quinoline]
Ki [1]: 0.5 µM

C=C[C@H]1CNCC[C@H]1CCc1ccnc2ccc(OC)cc12 [Example 14, 6-METHOXY-4-{2-[3(R)-ETHENYL-4(R)-PIPERIDYL]-ETHYL}-QUINOLINE]
Ki [1]: 5 µM | ED50 [2]: 5 mg/kg

C=C[C@H]1CNCC[C@H]1CC(=O)c1ccnc2ccc(OC)cc12 [Example 3, 2-[3(R)-ethenyl-4(S)-piperidyl]-1-(6-methoxy-4-quinolyl)-ethanone]
Ki [1]: 16 µM

c1ccc2c(CCC3CCNCC3)ccnc2c1 [Example 24, 4-[2-(4-piperidyl)-ethyl]-quinoline]
Ki [1]: 13 µM

O=C(CC1CCNCC1)c1cc(-c2ccccc2)nc2ccccc12 [Example 5, 1-(2-phenyl-4-quinolyl)-2-(4-piperidyl)-ethanone]
Ki [1]: 0.5 µM

COc1ccc2nc(-c3ccccc3)cc(CCC3CCNCC3)c2c1 [Example 25, 6-methoxy-2-phenyl-4-[2-(4-piperidyl)-ethyl]-quinoline]
Ki [1]: 11 µM

COc1ccc2nccc(CCC3CCNCC3)c2c1 [Example 13, 6-METHOXY-4-[2-(4-PIPERIDYL)-ETHYL]-QUINOLINE]
Ki [1]: 7 µM

COc1ccc(-c2cc(C(=O)CC3CCNCC3)c3ccccc3n2)cc1 [Example 9, 1-[2-(4-methoxy-phenyl)-4-quinolyl]-2-(4-piperidyl)ethanone]
Ki [1]: 5 µM
